Data from ChEMBL document CHEMBL1649497, “Comparison of the pharmacodynamics of biapenem in bronchial epithelial lining fluid in healthy volunteers given half-hour and three-hour intravenous infusions” (Antimicrob Agents Chemother, 2009).

Legend:
[1] = T>MIC in healthy human at epithelial lining fluid MIC of 4 ug/ml and compound dose of 0.3 […], iv after 3 hrs; format: functional
[2] = T>MIC in healthy human at epithelial lining fluid MIC of 2 ug/ml and compound dose of 0.3 […], iv after 0.5 hrs; format: functional
[3] = T>MIC in healthy human at epithelial lining fluid MIC of 2 ug/ml and compound dose of 0.3 […], iv after 3 hrs; format: functional
[4] = T>MIC in healthy human at epithelial lining fluid MIC of 1 ug/ml and compound dose of 0.3 […], iv after 0.5 hrs; format: functional
[5] = T>MIC in healthy human at epithelial lining fluid MIC of 1 ug/ml and compound dose of 0.3 […], iv after 3 hrs; format: functional
[6] = T>MIC in healthy human at epithelial lining fluid MIC of 0.5 ug/ml and compound dose of 0.3 […], iv after 0.5 hrs; format: functional
[7] = T>MIC in healthy human at epithelial lining fluid MIC of 0.5 ug/ml and compound dose of 0.3 […], iv after 3 hrs; format: functional
[8] = T>MIC in healthy human at epithelial lining fluid MIC of 0.5 ug/ml and compound dose of 0.3 […], iv after […] hrs; format: functional
[9] = T>MIC in healthy human at epithelial lining fluid MIC of 0.25 ug/ml and compound dose of 0.3 […], iv after 3 hrs; format: functional
[10] = Cmax in plasma of healthy human at 0.3 […], iv after 0.5 hrs; format: ADME, organism-based; design: route intravenous
[11] = Cmax in plasma of healthy human at 0.3 […], iv after 3 hrs; format: ADME, organism-based; design: route intravenous
[12] = Tmax in plasma of healthy human at 0.3 […], iv after 0.5 hrs; format: ADME, organism-based
[13] = Tmax in plasma of healthy human at 0.3 […], iv after 3 hrs; format: ADME, organism-based
[14] = AUC in plasma of healthy human at 0.3 […], iv after 0.5 hrs; format: ADME, organism-based; design: time < 0.5 hr, route intravenous
[15] = AUC in plasma of healthy human at 0.3 […], iv after 3 hrs; format: ADME, organism-based; design: time < 3 hr, route intravenous
[16] = Cmax in epithelial lining fluid of healthy human at 0.3 […], iv after 0.5 hrs; format: ADME, organism-based; design: route intravenous
[17] = Cmax in epithelial lining fluid of healthy human at 0.3 […], iv after 3 hrs; format: ADME, organism-based; design: route intravenous
[18] = Tmax in epithelial lining fluid of healthy human at 0.3 […], iv after 0.5 hrs; format: ADME, organism-based
[19] = Tmax in epithelial lining fluid of healthy human at 0.3 […], iv after 3 hrs; format: ADME, organism-based
[20] = AUC in epithelial lining fluid of healthy human at 0.3 […], iv after 0.5 hrs; format: ADME, organism-based; design: time < 0.5 hr, route intravenous
[21] = AUC in epithelial lining fluid of healthy human at 0.3 […], iv after 3 hrs; format: ADME, organism-based; design: time < 3 hr, route intravenous
[22] = Drug level in epithelial lining fluid of healthy human at 0.3 […], iv after 0.5 hrs; format: ADME, organism-based; conditions: read-out: Drug uptake
[23] = Drug level in epithelial lining fluid of healthy human at 0.3 […], iv after 3 hrs; format: ADME, organism-based; conditions: read-out: Drug uptake
[24] = T>MIC in healthy human at plasma MIC of 4 ug/ml and compound dose of 0.3 […], iv after 0.5 hrs; format: functional
[25] = T>MIC in healthy human at plasma MIC of 4 ug/ml and compound dose of 0.3 […], iv after 3 hrs; format: functional
[26] = T>MIC in healthy human at plasma MIC of 2 ug/ml and compound dose of 0.3 […], iv after 0.5 hrs; format: functional
[27] = T>MIC in healthy human at plasma MIC of 2 ug/ml and compound dose of 0.3 […], iv after 3 hrs; format: functional
[28] = T>MIC in healthy human at plasma MIC of 1 ug/ml and compound dose of 0.3 […], iv after 0.5 hrs; format: functional
[29] = T>MIC in healthy human at plasma MIC of 1 ug/ml and compound dose of 0.3 […], iv after 3 hrs; format: functional
[30] = T>MIC in healthy human at plasma MIC of 0.5 ug/ml and compound dose of 0.3 […], iv after 0.5 hrs; format: functional
[31] = T>MIC in healthy human at plasma MIC of 0.5 ug/ml and compound dose of 0.3 […], iv after 3 hrs; format: functional
[32] = T>MIC in healthy human at plasma MIC of 0.25 ug/ml and compound dose of 0.3 […], iv after 0.5 hrs; format: functional
[33] = T>MIC in healthy human at plasma MIC of 0.25 ug/ml and compound dose of 0.3 […], iv after 3 hrs; format: functional
[34] = T>MIC in healthy human at epithelial lining fluid MIC of 4 ug/ml and compound dose of 0.3 […], iv after 0.5 hrs; format: functional

- Cmax [10]: 18100 ng/mL
- Cmax [11]: 6800 ng/mL
- Tmax [12]: 0.5 h
- Tmax [13]: 3 h
- AUC at 0.5 h [14]: 25000 ng·h/mL
- AUC at 3 h [15]: 25400 ng·h/mL
- Cmax [16]: 2350 ng/mL
- Cmax [17]: 4360 ng/mL
- Tmax [18]: 1.5 h
- Tmax [19]: 1.8 h
- AUC at 0.5 h [20]: 6400 ng·h/mL
- AUC at 3 h [21]: 13300 ng·h/mL
- concentration at 0.5 h [22]: 3480 ng/mL
- concentration at 3 h [23]: 1330 ng/mL
SMILES: C[C@@H](O)[C@H]1C(=O)N2C(C(=O)[O-])=C(SC3Cn4cnc[n+]4C3)[C@H](C)[C@H]12 (some centres undefined) [BIAPENEM]
- fT>MIC [1]: 5.1%
- fT>MIC [2]: 5.8%
- fT>MIC [3]: 17.4%
- fT>MIC [4]: 15.5%
- fT>MIC [5]: 29.1%
- fT>MIC [6]: 25.5%
- fT>MIC [7]: 41.4%
- fT>MIC [8]: 34.6%
- fT>MIC [9]: 52.2%
- fT>MIC [24]: 12.6%
- fT>MIC [25]: 22.3%
- fT>MIC [26]: 21.1%
- fT>MIC [27]: 34.3%
- fT>MIC [28]: 31.9%
- fT>MIC [29]: 43.8%
- fT>MIC [30]: 43.1%
- fT>MIC [31]: 53.7%
- fT>MIC [32]: 53.5%
- fT>MIC [33]: 64.5%
- fT>MIC [34]: 0%
